In ChEMBL document CHEMBL1944549, “Small molecule inhibitors of BRAF in clinical trials” (Bioorg Med Chem Lett, 2012):
pEC50: −log10 of the molar value.

Key:
[1] = Antitumor activity against human melanoma cells harboring patient assessed as increase in survival of patient at 1000 mg/kg, iv administered 3 times a week; type: functional; details: Melanoma cell
SK-MEL-2 = assay: Growth inhibition of human SK-MEL-2 cells expressing wild-type B-Raf and N-Ras2 Q61R mutant after 72 hrs by WST-1 assay; type: functional, cell-based; details: SK-MEL-2, 72 h
HCT-116 = assay: Growth inhibition of human HCT116 cells expressing wild-type B-Raf and K-Ras2 G13D mutant after 72 hrs by WST-1 assay; type: functional, cell-based; details: HCT-116, 72 h
[2] = Antitumor activity against human melanoma cells assessed as increase in survival of patient at […], po administered BID; type: functional; details: Melanoma cell
[3] = Toxicity in po dosed cancer patient bearing B-Raf V600E mutation administered BID; type: organism-based; details: human, in vivo

CC(C)(C)c1nc(-c2cccc(NS(=O)(=O)c3c(F)cccc3F)c2F)c(-c2ccnc(N)n2)s1 [DABRAFENIB]
survival at 1000 mg/kg [1]: 64%

CN(C)CCOc1ccc(-c2nc(-c3ccncc3)c(-c3ccc4c(c3)CC/C4=N\O)[nH]2)cc1 [SB590885]
pEC50 (SK-MEL-2): 5.96 | pEC50 (HCT-116): 5.96

CCCS(=O)(=O)Nc1ccc(F)c(C(=O)c2c[nH]c3ncc(-c4ccc(Cl)cc4)cc23)c1F [VEMURAFENIB]
survival [2]: 84% | MTD [3]: 960 mg
